From patent US20250176599A1, “FLAVOR COMPOSITION AND FOOD AND BEVERAGE” (TAKASAGO INTERNATIONAL CORPORATION, priority 2021, published 2025)

Tests used:
[1] = Sensory evaluation of aqueous solution I containing (E)-2-nonenal 1 ppb: off-flavor intensity and masking component intensity
Experimental: (§1) In ion-exchanged water, each degradation component was added to achieve the concentrations listed in Table 1, and aqueous solutions I to VI containing these degradation components were prepared.
(§2) For the aforementioned aqueous solutions containing degradation components, nootkatone was added at the concentrations listed in Table 2 to confirm the intensity of the off-flavor (masking effect) in each sample and the intensity of the masking component itself (the impact on the flavor of the food and/or beverage itself).
(§3) The test was conducted as follows. Eight experienced panelists were selected to conduct a sensory evaluation. The intensity of the off-flavor of the aqueous solution containing the degradation components derived from unsaturated fatty acids, without added masking components, was set as “Evaluation: 4.” The ion-exchanged water free of any degradation components was set as “Evaluation: 0.” The intensity of the off-flavor (masking effect) of each sample was then relatively evaluated according to the following evaluation criteria.
(§4) • Off-flavor is strongly sensed: 4 points • Off-flavor is sensed: 3 points • Off-flavor is slightly sensed: 2 points • Off-flavor is barely sensed: 1 point • Off-flavor is not sensed at all: 0 points
(§5) Also, the intensity of the masking components (impact on the flavor of the food and/or beverage itself) was absolutely evaluated according to the following evaluation criteria.
(§6) • Masking component is strongly sensed: 4 points • Masking component is sensed: 3 points • Masking component is slightly sensed: 2 points • Masking component is barely sensed: 1 point • Masking component is not sensed at all: 0 points

[2] = Sensory evaluation of aqueous solution V containing 1-octen-3-ol 10 ppb: off-flavor intensity and masking component intensity
Experimental: as §1, §2, §3, §4, §5, §6

[3] = Sensory evaluation of aqueous solution IV containing 1,5-octadien-3-one 100 ppt: off-flavor intensity and masking component intensity
Experimental: as §1, §2, §3, §4, §5, §6

[4] = Sensory evaluation of aqueous solution III containing 1-octen-3-one 1 ppb: off-flavor intensity and masking component intensity
Experimental: as §1, §2, §3, §4, §5, §6

[5] = Sensory evaluation of aqueous solution VI containing 1,5-octadien-3-ol 10 ppb: off-flavor intensity and masking component intensity
Experimental: as §1, §2, §3, §4, §5, §6

[6] = Overall conclusion of the sensory evaluation across aqueous solutions I to VI
Experimental: as §1, §2, §3, §4, §5, §6

[7] = Sensory evaluation of aqueous solution II containing (E)-2-octenal 10 ppb: off-flavor intensity and masking component intensity
Experimental: as §1, §2, §3, §4, §5, §6

[8] = 1 ppb added, average panel score
[9] = 1 ppm added, average panel score
[10] = 5 ppm added, average panel score
[11] = 10 ppb added, average panel score
[12] = 10 ppm added, average panel score
[13] = 50 ppm added, average panel score
[14] = 100 ppb added, average panel score
[15] = 100 ppt added, average panel score
[16] = aqueous solution IV, 1 ppb added, average panel score
[17] = aqueous solution IV, 1 ppm added, average panel score
[18] = aqueous solution IV, 5 ppm added, average panel score
[19] = aqueous solution IV, 10 ppb added, average panel score
[20] = aqueous solution IV, 10 ppm added, average panel score
[21] = aqueous solution IV, 50 ppm added, average panel score
[22] = aqueous solution IV, 100 ppb added, average panel score
[23] = aqueous solution IV, 100 ppt added, average panel score
[24] = aqueous solution VI, 1 ppb added, average panel score
[25] = aqueous solution VI, 1 ppm added, average panel score
[26] = aqueous solution VI, 5 ppm added, average panel score
[27] = aqueous solution VI, 10 ppb added, average panel score
[28] = aqueous solution VI, 10 ppm added, average panel score
[29] = aqueous solution VI, 50 ppm added, average panel score
[30] = aqueous solution VI, 100 ppb added, average panel score
[31] = aqueous solution VI, 100 ppt added, average panel score

## CCCC(=O)C(C)=O [2,3-Hexanedione, 2,3-hexanedione]
[1]; 1 ppb added, (E)-2-nonenal 1 ppb, average score 0-4
  Off-Flavor Intensity: 3.4 points
[1]; 1 ppm added, (E)-2-nonenal 1 ppb, average score 0-4
  Off-Flavor Intensity: 1.6 points
[1]; 5 ppb added, (E)-2-nonenal 1 ppb, average score 0-4
  Off-Flavor Intensity: 3.4 points
[1]; 5 ppm added, (E)-2-nonenal 1 ppb, average score 0-4
  Off-Flavor Intensity: 1.1 points
[1]; 10 ppb added, (E)-2-nonenal 1 ppb, average score 0-4
  Off-Flavor Intensity: 3.3 points
[1]; 10 ppm added, (E)-2-nonenal 1 ppb, average score 0-4
  Off-Flavor Intensity: 0.9 points
[1]; 50 ppb added, (E)-2-nonenal 1 ppb, average score 0-4
  Off-Flavor Intensity: 2.6 points
[1]; 100 ppb added, (E)-2-nonenal 1 ppb, average score 0-4
  Off-Flavor Intensity: 2.4 points
[1]; 500 ppb added, (E)-2-nonenal 1 ppb, average score 0-4
  Off-Flavor Intensity: 2.0 points
[2]; 1 ppb added, 1-octen-3-ol 10 ppb, average score 0-4
  Off-Flavor Intensity: 3.1 points
[2]; 1 ppm added, 1-octen-3-ol 10 ppb, average score 0-4
  Off-Flavor Intensity: 1.5 points
[2]; 5 ppb added, 1-octen-3-ol 10 ppb, average score 0-4
  Off-Flavor Intensity: 2.9 points
[2]; 5 ppm added, 1-octen-3-ol 10 ppb, average score 0-4
  Off-Flavor Intensity: 0.9 points
[2]; 10 ppb added, 1-octen-3-ol 10 ppb, average score 0-4
  Off-Flavor Intensity: 2.5 points
[2]; 10 ppm added, 1-octen-3-ol 10 ppb, average score 0-4
  Off-Flavor Intensity: 0.4 points
[2]; 50 ppb added, 1-octen-3-ol 10 ppb, average score 0-4
  Off-Flavor Intensity: 2.3 points
[2]; 100 ppb added, 1-octen-3-ol 10 ppb, average score 0-4
  Off-Flavor Intensity: 2.0 points
[2]; 500 ppb added, 1-octen-3-ol 10 ppb, average score 0-4
  Off-Flavor Intensity: 1.8 points
[3]; 1 ppb added, aqueous solution IV, 1,5-octadien-3-one 100 ppt, average score 0-4
  Off-Flavor Intensity: 3.6 points
[3]; 1 ppm added, aqueous solution IV, 1,5-octadien-3-one 100 ppt, average score 0-4
  Off-Flavor Intensity: 2.1 points
[3]; 5 ppb added, aqueous solution IV, 1,5-octadien-3-one 100 ppt, average score 0-4
  Off-Flavor Intensity: 3.5 points
[3]; 5 ppm added, aqueous solution IV, 1,5-octadien-3-one 100 ppt, average score 0-4
  Off-Flavor Intensity: 1.5 points
[3]; 10 ppb added, aqueous solution IV, 1,5-octadien-3-one 100 ppt, average score 0-4
  Off-Flavor Intensity: 3.4 points
[3]; 10 ppm added, aqueous solution IV, 1,5-octadien-3-one 100 ppt, average score 0-4
  Off-Flavor Intensity: 0.8 points
[3]; 50 ppb added, aqueous solution IV, 1,5-octadien-3-one 100 ppt, average score 0-4
  Off-Flavor Intensity: 2.9 points
[3]; 100 ppb added, aqueous solution IV, 1,5-octadien-3-one 100 ppt, average score 0-4
  Off-Flavor Intensity: 2.9 points
[3]; 500 ppb added, aqueous solution IV, 1,5-octadien-3-one 100 ppt, average score 0-4
  Off-Flavor Intensity: 2.6 points
[4]; 1 ppb added, 1-octen-3-one 1 ppb, average score 0-4
  Off-Flavor Intensity: 4.0 points
[4]; 1 ppm added, 1-octen-3-one 1 ppb, average score 0-4
  Off-Flavor Intensity: 2.3 points
[4]; 5 ppb added, 1-octen-3-one 1 ppb, average score 0-4
  Off-Flavor Intensity: 3.9 points
[4]; 5 ppm added, 1-octen-3-one 1 ppb, average score 0-4
  Off-Flavor Intensity: 1.8 points
[4]; 10 ppb added, 1-octen-3-one 1 ppb, average score 0-4
  Off-Flavor Intensity: 3.6 points
[4]; 10 ppm added, 1-octen-3-one 1 ppb, average score 0-4
  Off-Flavor Intensity: 1.5 points
[4]; 50 ppb added, 1-octen-3-one 1 ppb, average score 0-4
  Off-Flavor Intensity: 3.4 points
[4]; 100 ppb added, 1-octen-3-one 1 ppb, average score 0-4
  Off-Flavor Intensity: 3.0 points
[4]; 500 ppb added, 1-octen-3-one 1 ppb, average score 0-4
  Off-Flavor Intensity: 2.5 points
[5]; 1 ppb added, aqueous solution VI, 1,5-octadien-3-ol 10 ppb, average score 0-4
  Off-Flavor Intensity: 3.4 points
[5]; 1 ppm added, aqueous solution VI, 1,5-octadien-3-ol 10 ppb, average score 0-4
  Off-Flavor Intensity: 1.6 points
[5]; 5 ppb added, aqueous solution VI, 1,5-octadien-3-ol 10 ppb, average score 0-4
  Off-Flavor Intensity: 3.4 points
[5]; 5 ppm added, aqueous solution VI, 1,5-octadien-3-ol 10 ppb, average score 0-4
  Off-Flavor Intensity: 1.0 points
[5]; 10 ppb added, aqueous solution VI, 1,5-octadien-3-ol 10 ppb, average score 0-4
  Off-Flavor Intensity: 3.0 points
[5]; 10 ppm added, aqueous solution VI, 1,5-octadien-3-ol 10 ppb, average score 0-4
  Off-Flavor Intensity: 0.5 points
[5]; 50 ppb added, aqueous solution VI, 1,5-octadien-3-ol 10 ppb, average score 0-4
  Off-Flavor Intensity: 2.8 points
[5]; 100 ppb added, aqueous solution VI, 1,5-octadien-3-ol 10 ppb, average score 0-4
  Off-Flavor Intensity: 2.6 points
[5]; 500 ppb added, aqueous solution VI, 1,5-octadien-3-ol 10 ppb, average score 0-4
  Off-Flavor Intensity: 2.1 points
[6]
  concentration that masks the off-flavor and does not affect the flavor of the food and/or beverage itself, lower limit: ≥ 1 ppb
  concentration that masks the off-flavor and does not affect the flavor of the food and/or beverage itself, upper limit: ≤ 1 ppm
[7]; 1 ppb added, (E)-2-octenal 10 ppb, average score 0-4
  Off-Flavor Intensity: 3.0 points
[7]; 1 ppm added, (E)-2-octenal 10 ppb, average score 0-4
  Off-Flavor Intensity: 2.0 points
[7]; 5 ppb added, (E)-2-octenal 10 ppb, average score 0-4
  Off-Flavor Intensity: 3.0 points
[7]; 5 ppm added, (E)-2-octenal 10 ppb, average score 0-4
  Off-Flavor Intensity: 1.4 points
[7]; 10 ppb added, (E)-2-octenal 10 ppb, average score 0-4
  Off-Flavor Intensity: 2.6 points
[7]; 10 ppm added, (E)-2-octenal 10 ppb, average score 0-4
  Off-Flavor Intensity: 1.0 points
[7]; 50 ppb added, (E)-2-octenal 10 ppb, average score 0-4
  Off-Flavor Intensity: 2.5 points
[7]; 100 ppb added, (E)-2-octenal 10 ppb, average score 0-4
  Off-Flavor Intensity: 2.0 points
[7]; 500 ppb added, (E)-2-octenal 10 ppb, average score 0-4
  Off-Flavor Intensity: 2.0 points

## CC(C)C=C(C=O)c1ccccc1 [4-methyl-2-phenyl-2-pentenal]
[1]; [8]
  Masking Component Intensity: 0.5
  Off-Flavor Intensity: 2.8
[1]; [9]
  Masking Component Intensity: 1.9
  Off-Flavor Intensity: 1.6
[1]; [10]
  Masking Component Intensity: 2.9
  Off-Flavor Intensity: 1.1
[1]; [11]
  Masking Component Intensity: 0.9
  Off-Flavor Intensity: 2.3
[1]; [12]
  Masking Component Intensity: 3.8
  Off-Flavor Intensity: 0.5
[1]; [13]
  Masking Component Intensity: 4.0
  Off-Flavor Intensity: 0.3
[1]; [14]
  Masking Component Intensity: 1.4
  Off-Flavor Intensity: 1.8
[1]; [15]
  Masking Component Intensity: 0.4
  Off-Flavor Intensity: 3.3
[2]; [8]
  Masking Component Intensity: 0.8
  Off-Flavor Intensity: 2.3
[2]; [9]
  Masking Component Intensity: 2.4
  Off-Flavor Intensity: 1.1
[2]; [10]
  Masking Component Intensity: 2.8
  Off-Flavor Intensity: 0.8
[2]; [11]
  Masking Component Intensity: 1.4
  Off-Flavor Intensity: 1.8
[2]; [12]
  Masking Component Intensity: 3.5
  Off-Flavor Intensity: 0.6
[2]; [13]
  Masking Component Intensity: 3.9
  Off-Flavor Intensity: 0.5
[2]; [14]
  Masking Component Intensity: 1.6
  Off-Flavor Intensity: 1.6
[2]; [15]
  Masking Component Intensity: 0.6
  Off-Flavor Intensity: 2.8
[3]; [16]
  Masking Component Intensity: 0.4
  Off-Flavor Intensity: 3.6
[3]; [17]
  Masking Component Intensity: 1.9
  Off-Flavor Intensity: 2.3
[3]; [18]
  Masking Component Intensity: 2.3
  Off-Flavor Intensity: 2.0
[3]; [19]
  Masking Component Intensity: 1.0
  Off-Flavor Intensity: 3.0
[3]; [20]
  Masking Component Intensity: 3.0
  Off-Flavor Intensity: 1.4
[3]; [21]
  Masking Component Intensity: 3.6
  Off-Flavor Intensity: 1.0
[3]; [22]
  Masking Component Intensity: 1.4
  Off-Flavor Intensity: 2.6
[3]; [23]
  Masking Component Intensity: 0.3
  Off-Flavor Intensity: 3.6
[4]; [8]
  Masking Component Intensity: 0.9
  Off-Flavor Intensity: 3.4
[4]; [9]
  Masking Component Intensity: 2.5
  Off-Flavor Intensity: 2.1
[4]; [10]
  Masking Component Intensity: 3.0
  Off-Flavor Intensity: 1.8
[4]; [11]
  Masking Component Intensity: 1.4
  Off-Flavor Intensity: 3.1
[4]; [12]
  Masking Component Intensity: 3.5
  Off-Flavor Intensity: 1.6
[4]; [13]
  Masking Component Intensity: 3.8
  Off-Flavor Intensity: 1.3
[4]; [14]
  Masking Component Intensity: 1.8
  Off-Flavor Intensity: 2.6
[4]; [15]
  Masking Component Intensity: 0.5
  Off-Flavor Intensity: 3.6
[5]; [24]
  Masking Component Intensity: 0.3
  Off-Flavor Intensity: 1.8
[5]; [25]
  Masking Component Intensity: 1.8
  Off-Flavor Intensity: 0.9
[5]; [26]
  Masking Component Intensity: 2.4
  Off-Flavor Intensity: 0.4
[5]; [27]
  Masking Component Intensity: 0.8
  Off-Flavor Intensity: 1.4
[5]; [28]
  Masking Component Intensity: 3.1
  Off-Flavor Intensity: 0.4
[5]; [29]
  Masking Component Intensity: 3.5
  Off-Flavor Intensity: 0.1
[5]; [30]
  Masking Component Intensity: 1.3
  Off-Flavor Intensity: 1.0
[5]; [31]
  Masking Component Intensity: 0.0
  Off-Flavor Intensity: 2.1
[6]
  concentration that masks the off-flavor and does not affect the flavor of the food and/or beverage itself, lower limit: ≥ 100 ppt
  concentration that masks the off-flavor and does not affect the flavor of the food and/or beverage itself, upper limit: ≤ 10 ppm
[7]; [8]
  Masking Component Intensity: 0.5
  Off-Flavor Intensity: 2.8
[7]; [9]
  Masking Component Intensity: 2.1
  Off-Flavor Intensity: 1.6
[7]; [10]
  Masking Component Intensity: 2.6
  Off-Flavor Intensity: 1.4
[7]; [11]
  Masking Component Intensity: 1.1
  Off-Flavor Intensity: 2.5
[7]; [12]
  Masking Component Intensity: 3.4
  Off-Flavor Intensity: 1.0
[7]; [13]
  Masking Component Intensity: 3.9
  Off-Flavor Intensity: 0.6
[7]; [14]
  Masking Component Intensity: 1.6
  Off-Flavor Intensity: 2.0
[7]; [15]
  Masking Component Intensity: 0.4
  Off-Flavor Intensity: 3.0
